Molecules are shown by their SMILES.

Common to all, as to type: in vivo, mice (C57BL/6)
Assay [1] in a line: body weight of EAE diseased mice. To be noted: treated EAE animals, FIG. 2. As to the method: (§1) To assess the potential of these compounds in vivo, a chronic monophasic EAE disease in mice was induced before treatment with the new chemical entity (NCE). EAE Disease was induced in 8-10 week old female mice (C57BL/6) by subcutaneous (s.c.) injection of 200 μl emulsion containing 150 μg […] peptide (Genscript) in Complete Freund's Adjuvant (CFA; containing 5 mg/ml heat-inactivated Mycobacterium tuberculosis). On the same day, mice were administered 500 ng Pertussis Toxin (Kaketsuken, Japan) intraperitoneally (i.p.) and again two days later. Disease severity was recorded every 24 hours: 0-Normal; 1-flaccid tail; 2-imparied/wobbly gait; 3-complete hind limb weakness; 4-hind limb and forelimb paralysis; 5-moribund state/dead. Protocol is based on the Nature Protocols for Active induction of experimental allergic encephalomyelitis, which includes the scoring methodology: • Stromnes I M, Goverman J M (2006) Active induction of experimental allergic encephalomyelitis. Nat Protoc. 1(4):1810-9.
(§2) This contrasts with the sustained drop in body weight of non-treated EAE diseased animals to a level 86.4% that of controls at 21 dpi (17.8 grams versus 20.6 grams). Motor coordination and hind-limb strength were also evaluated by the ability of mice to cross a horizontal bar (FIG. 3). Non-diseased animals crossed the bar with an average time of 4.3±0.57 seconds.

In assay [2] the test system is chronic monophasic EAE disease in mice. In words: chronic monophasic EAE disease in mice, EAE score (disease severity). To be noted: FIG. 1. On the procedure:
as §1
The EAE score relates to an assessment of disease progression with respect to issues like tail paralysis and limb paralysis, a higher score is a worse condition. A score of 1 indicates decreased tail tone, a score of 2 indicates hind leg weakness (paraparesis), a score of 3 indicates hind limb paralysis and/or incontinence. Note that the untreated animals have a continuous and progressive worsening of disease.

The test system is the same in assay [3]. The experiment in a line: motor coordination and hind-limb strength: ability of EAE mice to cross a horizontal bar. To be noted: EAE diseased mice, within 4 treatments; FIG. 3. On the procedure:
as §1, §2

In assay [1] (21 dpi, controls 20.6 grams), `Cl.Nc1nc2[nH]cc(CNCCCc3ccccc3)c2c(=O)[nH]1` [Compound I, N-((2-amino-4-oxo-4,7-dihydro-3H-pyrrolo[2,3-d]pyrimidin-5-yl)methyl)-3-phenylpropan-1-aminium chloride] yielded a body weight of 19.9 grams. Besides, the “body weight level relative to controls” value in assay [1] (21 days post inoculation (dpi)) is recorded as 96.6%. For the same compound, the “EAE scoring after treatment” value in assay [2] (30 mg/kg, i.p., after 4 daily treatments) is on record as “disease free”. Further, the “time to reversal of symptoms (EAE score)” value in assay [2] (highest dosage given, 30 mg/kg, i.p.) was not above 24 h. Moreover, the “disease progression (EAE score)” value in assay [2] (lower doses, animals slower to respond) was “halted and reversed”. In assay [3], the “performance crossing a horizontal bar” value was “fully restored the performance of EAE diseased mice to control levels”.

Source of the values: US11518765B2, “Substituted pyrimidine derivatives useful in the treatment of autoimmune diseases” (THE PROVOST, FELLOWS, FOUNDATION SCHOLARS, AND THE OTHER …, priority 2015, dated 2022).
